Results as given in ChEMBL document CHEMBL5512613, “Design and synthesis of novel 3-amino-5-phenylpyrazole derivatives as tubulin polymerization inhibitors targeting the colchicine-binding site” (Eur J Med Chem, 2024).
pIC50: −log10 of the molar value. Activity calls are given as the source filed them. The calls are words filed in the database; no cut-off is given here.

Legend:
MCF7 [1] = assay: Antitumor activity against human MCF7 cells xenografted in BALB/c mouse assessed as inhibition of tumor growth by measuring decrease in tumor weight at 20 mg/kg, ip administered every 3 days for 21 days; type: functional; details: MCF7, 504 h, time 21 day, read-out: TGI
[2] = Toxicity against BALB/c mouse xenografted with human MCF7 cells assessed as body weight changes at 5 to 20 mg/kg, ip administered every 3 days for 21 days; type: organism-based; details: in vivo, 504 h, dose 5-20 mg/kg, time 21 day
Tubulin (Homo sapiens) [3] = biological target: T1, Tubulin (Homo sapiens) (UniProt P68371+Q9H4B7+P0DPH7+P68366+Q13509+Q71U36+P04350+Q3ZCM7+P07437+P68363+Q9BQE3+Q6PEY2+Q13885+Q9BVA1+Q9BUF5); assay: Displacement of [3H]colchicine from tubulin (unknown origin) at 5 uM incubated for 2 hrs by scinitillation proximity assay; type: protein-complex assay
MCF7 [4] = assay: Induction of apoptosis in human MCF7 cells assessed as increase in cleaved PARP protein expression at 6.25 to 50 nM incubated for 24 hrs by western blot analysis; type: functional, cell-based; details: dose 6.25-50 nM
Tubulin = assay: Inhibition of tubulin polymerization (unknown origin) measured for 60 mins by fluorescence based analysis; type: protein-complex assay, Homo sapiens
A549 = assay: Inhibition of cell migration in human A549 cells assessed as decrease in number of cells passing through membrane at 6.25 to 50 nM incubated for 24 hrs by transwell assay; type: functional, cell-based; details: dose 6.25-50 nM
MCF7 [5] = assay: Antitumor activity against human MCF7 cells xenografted in BALB/c mouse assessed as inhibition of tumor growth by measuring decrease in tumor weight at 10 mg/kg, ip administered every 3 days for 21 days; type: functional; details: MCF7, 504 h, time 21 day, read-out: TGI
MCF7 [6] = assay: Induction of cell cycle arrest in human MCF7 cells assessed as proportion of cells at G1 phase at 25 nM incubated for 24 hrs by PI staining based flow cytometry (reference value: 64.5%); type: functional
MCF7 [7] = assay: Induction of cell cycle arrest in human MCF7 cells assessed as proportion of cells at S phase at 12.5 nM incubated for 24 hrs by PI staining based flow cytometry (reference value: 21.1%); type: functional
Tubulin (Homo sapiens) [8] = biological target: T1, Tubulin (Homo sapiens); assay: Inhibition of tubulin polymerization in human MCF7 cells assessed as disruption of microtubule network into punctate at 25 to 200 nM incubated for 8 hrs by DAPI staining based immunofluorescence assay; type: cell-based; details: dose 25-200 nM
MCF7 [9] = assay: Induction of apoptosis in human MCF7 cells assessed as decrease in Bcl-2 protein expression at 6.25 to 50 nM incubated for 24 hrs by western blot analysis; type: functional, cell-based; details: dose 6.25-50 nM
MCF7 [10] = assay: Induction of cell cycle arrest in human MCF7 cells assessed as increase in p21 protein expression at 6.25 to 50 nM incubated for 24 hrs by western blot analysis; type: functional, cell-based; details: dose 6.25-50 nM
[11] = biological target: Tubulin beta (Homo sapiens) (UniProt P68371+Q9H4B7+Q13509+P04350+Q3ZCM7+P07437+Q13885+Q9BVA1+Q9BUF5+A6NNZ2); assay: Binding affinity to beta-tubulin (unknown origin) assessed as decrease in beta-tubulin/EBI adduct formation at 0.2 to 25 uM incubated for 2 hrs followed by incubation with EBI for 1.5 hrs by EBI competition based western blot analysis; type: protein assay; details: dose 0.2-25 µM, time 3.5 hrs

inhibition (Tubulin (Homo sapiens) [3]): 91.4%
pIC50 (Tubulin): 5.73
inhibition (Tubulin (Homo sapiens) [8]): Active
Activity [11]: Active
Structure (SMILES): COc1cc(C(=O)n2nc(N)cc2-c2ccc(C)cc2)cc(OC)c1OC
inhibition in vivo at 20 mg/kg (MCF7 [1]): 69%
Activity [2]: Non-Toxic
Activity (MCF7 [4]): Active
inhibition (A549): Active
inhibition in vivo at 10 mg/kg (MCF7 [5]): 36.1%
Activity (MCF7 [6]): 7.65%
Activity (MCF7 [7]): 15.7%
Activity (MCF7 [9]): Active
Activity (MCF7 [10]): Active
